According to patent US12616691B2, “Use of fatty acid oxidation inhibitors as antimicrobials” (Washington University in St. Louis, priority 2018, dated 2026):
Converted amounts (≈) assume the structure as drawn. Where two headings read alike, the source gives them in different places.

Experiments:
Mtb (H37Rv) = assay: MIC on Mtb (H37Rv) in liquid; type: cell-based, Mycobacterium tuberculosis; details: for MIC: Mycobacterium tuberculosis
FAO [1] = details: murine and human monocyte-derived macrophages; cited from earlier work
mitochondrial ROS = assay: Mitochondrial ROS (mitoSOX) in uninfected BMDMs; type: cell-based; details: TMZ 500 nM 3 hours; antimycin 30 μM, rotenone 10 μM 30 minutes
Description: Mitochondrial ROS production was measured in macrophages treated with TMZ in combination with ETC inhibitors antimycin and rotenone. Rotenone inhibits Complex I (NADH coenzymeQ reductase) and antimycin is an inhibitor of Complex III (coenzyme Q: cytochrome C oxidoreductase). Uninfected BMDMs were treated with 500 nM TMZ for 3 hours. Thirty minutes prior to termination of the experiment, antimycin (30 μM) and rotenone (10 μM) were added. Menadione (60 μM, 30 mins), which causes mitochondrial depolarization, was used as a positive control. Mitochondrial ROS production was increased in samples treated with TMZ, antimycin and rotenone (FIG. 14A). However, contrasting results were observed when TMZ was used in combination with the ETC inhibitors.

p62 = assay: Autophagy induction: p62 co-localization with Mtb and p62 puncta in BMDMs; type: cell-based; details: 5 nM
Description: Wild type BMDMs were infected with H37Rv expressing DsRed at MOI 1:5 for 4 hours. After bacterial uptake, the culture medium was supplemented with TMZ (5 nm). At 24 hours post infection (hpi), samples were fixed and immunostained with p62 (green). Alternatively, bacterial numbers were enumerated by CFU at 3 days post infection (dpi). For IF, images were captured using a confocal microscope equipped with a 60× oil immersion objective lens. To quantify co-localation of Mtb and autophagosomes each bacteria was converted to a region of interest (ROI) and the mean fluorescence intensity of the p62 signal was measured. To assess autophagy induction, the total p62 puncta per cell in shapes that were untreated or treated with TMZ. IFN-γ, which activates autophagy, was used as a positive control.

BMDMs [2] = assay: Macrophage viability (calcein-AM); type: cell-based, murine; details: 72 hours
Description: FIG. 4B depicts the effect of metformin and oxfenicine on macrophage viability. BMDMs were treated with the indicated concentration of compound for 72 hours, and viability was assessed using the cellular dye, calcein-AM, and normalized to untreated controls (--). Data are mean+/−SD.
Importantly, plasma concentrations of TMZ in patients treated for angina (60 mg/day) are 70-100 nM, in line with the ability of TMZ to inhibit FAO in intact hearts at 100 nM. […] BMDMs were treated with the indicated concentration of compound for 72 hours, and viability was assessed using the cellular dye, calcein-AM, and normalized to untreated controls (--).
The antimicrobial activity and FAO inhibition was analyzed for cellular toxicity. BMDMs were treated with the indicated concentration of compound for 72 hours, and viability was assessed using the cellular dye, calcein-AM, and normalized to untreated controls (--).

H37Rv = assay: Efficacy of TMZ in acute TB infection in mice (CFU in lungs and spleen); type: in vivo, Mycobacterium tuberculosis; details: 16.8 mg/kg/day, 2 weeks
total cellular ROS = assay: Total cellular ROS (CellRox staining) in macrophages; type: cell-based
Description: Total cellular ROS levels were compared in FAO inhibitor-treated and untreated samples using CellRox (Molecular Probes) staining. Macrophages were infected as previously described and co-localization of Mth with subunits of the NADPH oxidase (p40^phox and gp91^phox/NOX2) were monitored in FAO inhibitor-treated and untreated samples. To determine whether FAO inhibition induced oxidative stress in the host, uninfected RAW 264.7 cells were treated with TMZ at 5 nM and 500 nM and ETM at 50 μM and total cellular ROS was determined at 1, 3, and 24 hours post-treatment using CellRox dye. In parallel, tert-butyl hydroperoxide (0.5 mM tBHP) was used as a positive control. The samples were imaged using confocal microscopy and the fluorescence intensity of each cell was quantified.

M. abscessus = assay: Intracellular growth of M. abscessus in RAW264.7 cells and BMDMs (CFU); type: cell-based, Mycobacterium abscessus; details: RAW264.7 cells and wt BMDMs, 500 nM
LC3 = assay: Autophagy flux (LC3 with and without bafilomycin A1) in H37Rv-infected BMDMs; type: cell-based; details: 500 nM, 3 hours
FAO [3] = details: cited from earlier work
[4] = system: IL-6, TNF-α, IL-1α/β, and IL-10; assay: Cytokine levels in supernatants of BMDMs; type: cell-based; details: wild type BMDMs, 5 nM, 24 and 72 hpi
Description: (§1) Oxygen consumption rate (OCR) and extracellular acidification rate (ECAR) was measured using SeaHorse Analyzers in uninfected wild type and FAO-deficient carnitine palmitoyltransferase 2 KO (Cpt2 cKO) BMDMs treated with 5 nM TMZ. Additionally, whether FAO inhibitors promoted pro-inflammatory signaling was tested. Wild type macrophages were infected with H37Rv and treated with 5 nM TMZ for 24 and 72 hpi. Following filter sterilization, sample supernatants were examined for pro-inflammatory cytokines including, IL-1β, IL-6, TNF-α, and the anti-inflammatory cytokine IL-10.

[5] = set-up: species or system mice; details: in vivo
Description: A pharmacokinetics (PK) study of TMZ in C57BL/6 mice was performed. […] Therefore, subcutaneous osmotic pumps were used to maintain steady state plasma levels of TMZ. A second PK study was performed using subcutaneous osmotic pumps (Alzet Osmotic Pumps) to establish the optimal infusion rate and dosing for a subsequent efficacy study. TMZ steady state exposure in mice was successfully achieved with the use of subcutaneous osmotic pumps.

long-chain 3-KAT = biological target: T1, long-chain 3-KAT (Rattus norvegicus, UniProt Q60587); details: rat heart mitochondria; cited from earlier work
T1 construct: from tissue; host or cells: rat heart mitochondria
T1 sequence (Q60587 35-475): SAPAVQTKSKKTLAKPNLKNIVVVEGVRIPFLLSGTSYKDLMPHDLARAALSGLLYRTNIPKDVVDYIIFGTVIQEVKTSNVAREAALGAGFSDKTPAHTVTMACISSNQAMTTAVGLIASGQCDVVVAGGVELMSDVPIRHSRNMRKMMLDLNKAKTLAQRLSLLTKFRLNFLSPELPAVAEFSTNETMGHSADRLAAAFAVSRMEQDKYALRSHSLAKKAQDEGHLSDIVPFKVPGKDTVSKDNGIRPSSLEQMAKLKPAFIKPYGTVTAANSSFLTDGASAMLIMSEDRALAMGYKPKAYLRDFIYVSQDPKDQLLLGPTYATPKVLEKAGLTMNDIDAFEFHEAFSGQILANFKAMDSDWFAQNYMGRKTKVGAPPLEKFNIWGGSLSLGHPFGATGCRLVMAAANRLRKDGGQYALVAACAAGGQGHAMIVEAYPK
T1 sequence (Q64428 37-763 partner): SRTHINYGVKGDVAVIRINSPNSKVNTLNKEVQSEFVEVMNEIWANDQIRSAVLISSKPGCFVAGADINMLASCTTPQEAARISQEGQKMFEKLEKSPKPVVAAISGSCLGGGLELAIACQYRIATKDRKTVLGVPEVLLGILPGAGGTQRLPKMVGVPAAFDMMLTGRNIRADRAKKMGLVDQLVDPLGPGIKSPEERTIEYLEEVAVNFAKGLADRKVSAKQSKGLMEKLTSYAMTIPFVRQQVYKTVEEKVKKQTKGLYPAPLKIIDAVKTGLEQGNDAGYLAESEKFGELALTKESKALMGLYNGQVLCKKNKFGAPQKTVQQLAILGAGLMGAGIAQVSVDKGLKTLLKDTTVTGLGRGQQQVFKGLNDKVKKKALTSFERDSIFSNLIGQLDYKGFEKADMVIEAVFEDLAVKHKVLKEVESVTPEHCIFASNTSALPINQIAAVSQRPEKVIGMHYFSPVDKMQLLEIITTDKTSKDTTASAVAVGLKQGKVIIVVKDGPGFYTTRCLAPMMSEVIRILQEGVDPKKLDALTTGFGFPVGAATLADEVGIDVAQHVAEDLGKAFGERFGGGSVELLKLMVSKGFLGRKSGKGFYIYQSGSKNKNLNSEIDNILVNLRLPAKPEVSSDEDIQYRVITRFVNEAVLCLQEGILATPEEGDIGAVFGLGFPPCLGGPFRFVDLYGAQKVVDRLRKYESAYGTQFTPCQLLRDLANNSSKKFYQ

Mtb = assay: MIC against Mtb in human THP1 cells; type: cell-based, Mycobacterium tuberculosis
Description: If CPT-1 and 3-KAT are the relevant antimicrobial targets, respectively, concordance in the potency of the compounds is anticipated in the assays. […] The MIC of TMZ against Mtb in human THP1 cells was approximately […].

gp91phox/NOX2 = assay: Co-localization of Mtb with NADPH oxidase subunit NOX2 in BMDMs; type: cell-based; details: 24 hours
BMDMs [6] = assay: OCR and ECAR by SeaHorse metabolic flux assay in BMDMs; type: cell-based; details: wild type BMDMs, 5 nM, 3 hours
Description: as §1

[7] = human, in vivo, 20 mg; cited from earlier work
[8] = Mtb (H37Rv) in liquid, read-out: MIC

NNC(=O)c1ccncc1 [INH, isoniazid]
MIC (Mtb (H37Rv); [8]): < 0.3 µM

CN(C)C(=N)N=C(N)N [Metformin, metformin]
MIC (Mtb (H37Rv); [8]): > 15000 µM

CCOC(=O)C1(CCCCCCOc2ccc(Cl)cc2)CO1 (centres unmarked) [Etomoxir, ethyl 2-[6-(4-chlorophenoxy)hexyl]oxirane-2-carboxylate]
MIC (Mtb (H37Rv); [8]): > 250 µM | direct effect on Mtb growth (Mtb (H37Rv); ten times the dose that inhibited intracellular Mtb): did not directly prevent Mtb growth | concentration that blocks FAO in macrophages (FAO [1]): 10 to 25 µM

C=C(C)[C@H]1Cc2c(ccc3c2O[C@@H]2COc4cc(OC)c(OC)cc4[C@@H]2C3=O)O1 [rotenone]
mitochondrial ROS production (mitochondrial ROS): increased

antimycin
mitochondrial ROS production (mitochondrial ROS): increased

COc1ccc(CN2CCNCC2)c(OC)c1OC [Trimetazidine, 1-(2,3,4-trimethoxybenzyl)piperazine]
total number of p62 puncta in macrophages (p62): significantly increased | co-localization of H37Rv and p62 (p62; 24 hpi): increased | mitochondrial ROS production (mitochondrial ROS): increased | macrophage toxicity (BMDMs [2]): not related to macrophage toxicity | MIC (Mtb (H37Rv); H37RV): 1000 µM (≈ 266 µg/mL) | reduction in Mtb CFUs in the lungs (H37Rv; C57Bl/6 mice): 50-70% | bacterial burden in lung and spleen tissues (H37Rv; vs untreated control mice): significantly reduced bacterial burden | total cell ROS in Mtb-infected Atg5 KO BMDMs (total cellular ROS; 3 hour treatment): increased ROS signal | total cell ROS in Mtb-infected Nox2 KO BMDMs (total cellular ROS; 24 hours, 5 nM): significant increase in ROS | total cell ROS in Mtb-infected wild type BMDMs (total cellular ROS; 24 hours, 5 nM): induced ROS | M. abscessus infection (CFU) (M. abscessus): significantly decreased infection | autophagy flux (LC3): No changes | concentration that inhibits FAO in intact hearts (FAO [3]): 100 nM | levels of IL-6, TNF-α, IL-1α/β, and IL-10 [4]: No significant difference | predicted free drug concentrations ([5]; C57BL/6, mouse, 16.8 mg/kg/day): 135 nM | half-life ([5]; mouse): less than an hour | IC50 (long-chain 3-KAT): ~75 nM | MIC against Mtb in human THP1 cells (Mtb): approximately 50 nM | co-localization of Mtb and NOX2 (gp91phox/NOX2): increased | ECAR (BMDMs [6]): decrease | Cmax [7]: 313 nM

C1CCC(C(CC2CCCCN2)C2CCCCC2)CC1 (centres unmarked) [Perhexiline, 2-(2,2-dicyclohexylethyl)piperidine]
MIC (Mtb (H37Rv); [8]): > 100 µM
